Laboratory results reported in paper PMC13110330, “Design, Synthesis, and Evaluation of New Polyhydroxylated B is‐Chalcones as Potential COX‐2 Selective Inhibitors” (Chemmedchem, 2026).

Assays:
human recombinant COX‐2 = molecular target: T1, human recombinant COX‐2 (Homo sapiens, UniProt P35354); test: In vitro fluorometric COX‐2 inhibitory assay and selectivity index; assay type: biochemical; conditions: for IC50: human recombinant enzyme
T1 construct: purchased Sigma Chemical Co. (St. Louis, MO, USA)
T1 sequence (P35354 18-604): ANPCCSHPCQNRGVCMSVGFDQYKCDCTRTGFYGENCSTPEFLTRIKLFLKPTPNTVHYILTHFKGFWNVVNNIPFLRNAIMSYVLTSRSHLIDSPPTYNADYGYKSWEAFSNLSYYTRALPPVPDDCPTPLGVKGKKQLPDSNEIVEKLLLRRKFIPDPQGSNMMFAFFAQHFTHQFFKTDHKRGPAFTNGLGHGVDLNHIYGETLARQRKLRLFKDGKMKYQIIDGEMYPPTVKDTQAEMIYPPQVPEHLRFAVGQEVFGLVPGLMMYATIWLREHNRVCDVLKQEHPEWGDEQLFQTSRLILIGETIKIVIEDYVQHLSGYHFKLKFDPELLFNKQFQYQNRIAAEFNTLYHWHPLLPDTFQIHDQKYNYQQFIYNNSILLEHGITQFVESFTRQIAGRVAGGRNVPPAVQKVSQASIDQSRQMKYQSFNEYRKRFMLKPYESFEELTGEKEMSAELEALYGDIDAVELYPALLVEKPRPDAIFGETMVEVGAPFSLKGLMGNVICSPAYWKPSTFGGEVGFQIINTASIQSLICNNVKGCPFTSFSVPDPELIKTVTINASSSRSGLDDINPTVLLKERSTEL

human recombinant COX‐1 = molecular target: T2, human recombinant COX‐1 (Homo sapiens, UniProt P23219); test: In vitro fluorometric COX‐1 inhibitory assay; assay type: biochemical; conditions: mean ± SEM; for IC50: human recombinant enzyme
T2 construct: purchased Sigma Chemical Co. (St. Louis, MO, USA)
T2 sequence (P23219 24-599): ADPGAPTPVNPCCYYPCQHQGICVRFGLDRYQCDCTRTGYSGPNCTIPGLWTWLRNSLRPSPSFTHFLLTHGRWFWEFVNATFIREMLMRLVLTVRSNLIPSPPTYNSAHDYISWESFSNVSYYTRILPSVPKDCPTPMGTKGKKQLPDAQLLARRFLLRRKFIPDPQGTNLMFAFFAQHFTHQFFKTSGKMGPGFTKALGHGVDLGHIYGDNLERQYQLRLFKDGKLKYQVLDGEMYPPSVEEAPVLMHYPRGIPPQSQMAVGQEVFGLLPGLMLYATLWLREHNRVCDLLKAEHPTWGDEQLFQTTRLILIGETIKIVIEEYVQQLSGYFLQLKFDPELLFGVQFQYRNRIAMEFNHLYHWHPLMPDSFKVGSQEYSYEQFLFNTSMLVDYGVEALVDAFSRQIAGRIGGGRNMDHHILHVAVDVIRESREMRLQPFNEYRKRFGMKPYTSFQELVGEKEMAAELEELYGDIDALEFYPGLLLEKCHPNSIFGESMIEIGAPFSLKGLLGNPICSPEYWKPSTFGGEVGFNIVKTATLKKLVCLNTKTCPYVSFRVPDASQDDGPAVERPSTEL
Protocol: The COX‐1/2 inhibitory potential of bis‐chalcones was assessed with an in vitro fluorometric assay, based on the protocol outlined by Sigma‐Aldrich in their COX‐2 Inhibitor Screening Kit.
To conduct the assay, human recombinant COX‐1 or COX‐2 (2.5 ng/µL) was combined with diluted hemin (1 µM), COX cofactor, and ampliflu red (100 µM) in assay buffer (trizma hydrochloride pH = 8.0 and EDTA 0.1 µM).

COX‐2 = test system: COX‐2; set-up: method as in PMID 824724; conditions: measured in rabbit cell; cited from earlier work
[1] = SI = % inhibition COX‐2 / % inhibition COX‐1 at 100 µM
[2] = at 100 μM, highest tested concentration, mean ± SEM
[3] = at 100 μM, highest tested concentration

Compound | inhibition at 100 µM (human recombinant COX‐2; [2]) [%] | inhibition at 100 µM (human recombinant COX‐1; [3]) [%] | also measured
COc1ccc(/C=C/C(=O)c2c(O)cc(O)c(C(=O)/C=C/c3ccc(OC)c(OC)c3)c2O)cc1OC [Compound 26, (2E,2′E)−1,1′‐(2,4,6‐Trihydroxy‐1,3‐phenylene)bis[3‐(3,4‐dimethoxyphenyl)prop‐2‐en‐1‐one]] | 40 to 50 | 40 to 50 | Selectivity index (SI) (human recombinant COX‐2; [1]): 0.8
COc1cc(/C=C/C(=O)c2c(O)cc(O)c(C(=O)/C=C/c3ccc(O)c(OC)c3)c2O)ccc1O [Compound 28, (2E,2′E)−1,1′‐(2,4,6‐Trihydroxy‐1,3‐phenylene)bis[3‐(4‐hydroxy‐3‐methoxyphenyl)prop‐2‐en‐1‐one]] |  |  | Selectivity index (SI) (human recombinant COX‐2; SI = IC50 COX‐1 / IC50 COX‐2): 2.6; IC50 (human recombinant COX‐2; mean ± SEM): 14.6 ± 0.5 µM; IC50 (human recombinant COX‐1): 37 ± 4 µM
Cc1c(Cl)cccc1Nc1ccccc1C(=O)O [tolfenamic acid] |  |  | IC50 (COX‐2): 0.64 µM
COc1ccc(/C=C/C(=O)c2c(O)cc(O)c(C(=O)/C=C/c3ccc(OC)cc3)c2O)cc1 [Compound 27, (2E,2′E)−1,1′‐(2,4,6‐Trihydroxy‐1,3‐phenylene)bis[3‐(4‐methoxyphenyl)prop‐2‐en‐1‐one]] |  |  | Selectivity index (SI) (human recombinant COX‐2; SI = IC50 COX‐1 / IC50 COX‐2): 1.2; IC50 (human recombinant COX‐2; mean ± SEM): 44 ± 3 µM; IC50 (human recombinant COX‐1): 48 ± 2 µM
COCOc1cc(OCOC)c(C(=O)/C=C/c2ccc(OC)c(OC)c2)c(OCOC)c1C(=O)/C=C/c1ccc(OC)c(OC)c1 [Compound 19, (2E,2′E)−1,1′‐[2,4,6‐Tris(methoxymethoxy)−1,3‐phenylene]bis[3‐(3,4‐dimethoxyphenyl)prop‐2‐en‐1‐one]] | < 30 | < 30 | 
COc1cc(OC)c(C(=O)/C=C/c2ccc(O)cc2)c(OC)c1C(=O)/C=C/c1ccc(O)cc1 [Compound 12, (2E,2′E)−1,1′‐(2,4,6‐Trimethoxy‐1,3‐phenylene)bis[3‐(4‐hydroxyphenyl)prop‐2‐en‐1‐one]] | ~50 | ~50 | Selectivity index (SI) (human recombinant COX‐2; [1]): 0.9
COCOc1cc(OCOC)c(C(=O)/C=C/c2ccc(OC)cc2)c(OCOC)c1C(=O)/C=C/c1ccc(OC)cc1 [Compound 20, (2E,2′E)−1,1′‐[2,4,6‐Tris(methoxymethoxy)−1,3‐phenylene]bis[3‐(4‐methoxyphenyl)prop‐2‐en‐1‐one]] | < 30 | < 30 | 
COCOc1ccc(/C=C/C(=O)c2c(OCOC)cc(OCOC)c(C(=O)/C=C/c3ccc(OCOC)c(OC)c3)c2OCOC)cc1OC [Compound 21, (2E,2′E)−1,1′‐[2,4,6‐Tris(methoxymethoxy)−1,3‐phenylene]bis{3‐[3‐methoxy‐4‐(methoxymethoxy)phenyl]prop‐2‐en‐1‐one}] | < 30 | < 30 | 
COc1ccc(/C=C/C(=O)c2c(OC)cc(OC)c(C(=O)/C=C/c3ccc(OC)c(OC)c3)c2OC)cc1OC [Compound 10, (2E,2′E)−1,1′‐(2,4,6‐Trimethoxy‐1,3‐phenylene)bis[3‐(3,4‐dimethoxyphenyl)prop‐2‐en‐1‐one]] | < 30 | < 30 | 
COCOc1ccc(/C=C/C(=O)c2c(OCOC)cc(OCOC)c(C(=O)/C=C/c3ccc(OCOC)cc3)c2OCOC)cc1 [Compound 25, (2E,2′E)−1,1′‐[2,4,6‐Tris(methoxymethoxy)−1,3‐phenylene]bis{3‐[4‐(methoxymethoxy)phenyl]prop‐2‐en‐1‐one}] | < 30 | < 30 | 
COc1cc(/C=C/C(=O)c2c(OC)cc(OC)c(C(=O)/C=C/c3ccc(O)c(OC)c3)c2OC)ccc1O [Compound 13, (2E,2′E)−1,1′‐(2,4,6‐Trimethoxy‐1,3‐phenylene)bis[3‐(4‐hydroxy‐3‐methoxyphenyl)prop‐2‐en‐1‐one]] |  |  | Selectivity index (SI) (human recombinant COX‐2; SI = IC50 COX‐1 / IC50 COX‐2): 4.4; IC50 (human recombinant COX‐2; mean ± SEM): 5.5 ± 0.7 µM; IC50 (human recombinant COX‐1): 24 ± 3 µM
COc1cc(OC)c(C(=O)/C=C/c2cccc(Cl)c2)c(OC)c1C(=O)/C=C/c1cccc(Cl)c1 [Compound 15, (2E,2′E)−1,1′‐(2,4,6‐Trimethoxy‐1,3‐phenylene)bis[3‐(3‐chlorophenyl)prop‐2‐en‐1‐one]] | < 30 | < 30 | 
(2E,2′E)−1,1′‐{2,4,6‐Tris[(2‐methoxyethoxy)methoxy]−1,3‐phenylene}bis(3‐{3,4‐bis[(2‐methoxyethoxy)methoxy]phenyl}prop‐2‐en‐1‐one) [Compound 24] |  |  | COX‐2 Inhibition, % (human recombinant COX‐2; [2]): <30% ^100 μM; COX‐1 Inhibition, % (human recombinant COX‐1; [3]): <30% ^100 μM
O=C(/C=C/c1ccc(Br)cc1)c1c(O)cc(O)c(C(=O)/C=C/c2ccc(Br)cc2)c1O [Compound 29, (2E,2′E)−1,1′‐(2,4,6‐Trihydroxy‐1,3‐phenylene)bis[3‐(4‐bromophenyl)prop‐2‐en‐1‐one]] | 40 to 50 | 40 to 50 | Selectivity index (SI) (human recombinant COX‐2; [1]): 1.1; COX‐2 IC50, µM or Inhibition, % (human recombinant COX‐2; cell carries superscript 100 μM (highest tested concentration)): 58 ± 3 µM ^100 μM
COCOc1cc(OCOC)c(C(=O)/C=C/c2ccc(Br)cc2)c(OCOC)c1C(=O)/C=C/c1ccc(Br)cc1 [Compound 22, (2E,2′E)−1,1′‐[2,4,6‐Tris(methoxymethoxy)−1,3‐phenylene]bis(3‐(4‐bromophenyl)prop‐2‐en‐1‐one)] | < 30 | < 30 | 
COc1ccc(/C=C/C(=O)c2c(OC)cc(OC)c(C(=O)/C=C/c3ccc(OC)cc3)c2OC)cc1 [Compound 11, (2E,2′E)−1,1′‐(2,4,6‐Trimethoxy‐1,3‐phenylene)bis[3‐(4‐methoxyphenyl)prop‐2‐en‐1‐one]] | < 30 | < 30 | 
COc1cc(OC)c(C(=O)/C=C/c2ccc(Br)cc2)c(OC)c1C(=O)/C=C/c1ccc(Br)cc1 [Compound 14, (2E,2′E)−1,1′‐(2,4,6‐Trimethoxy‐1,3‐phenylene)bis[3‐(4‐bromophenyl)prop‐2‐en‐1‐one]] | < 30 | < 30 | 
